Reference: PubChem BioAssay (NCI)
“And” between values parts separate entries of the source, which are not always exact repeats. Equal entries are not always repeated.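 Method: 48-hour compound exposure of cells in 96-well plates, five concentrations, linear interpolation of endpoints. Here, GI50 denotes the concentration required for 50% inhibition of growth. At the TGI there is no net growth.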

Legend:
Assay in all cases: DTP human tumour cell line panel, 48 h
UACC-62 melanoma = system: UACC-62 melanoma
CCRF-CEM leukemia = system: CCRF-CEM leukemia
SK-MEL-5 melanoma = system: SK-MEL-5 melanoma
SR leukemia = system: SR leukemia
SNB-75 CNS = system: SNB-75 CNS
HCT-116 colon = system: HCT-116 colon
HL-60(TB) leukemia = system: HL-60(TB) leukemia
SF-295 CNS = system: SF-295 CNS
SK-OV-3 ovarian = system: SK-OV-3 ovarian
RPMI-8226 leukemia = system: RPMI-8226 leukemia

SMILES | TGI (UACC-62 melanoma) [µM] | TGI (CCRF-CEM leukemia) [µM] | TGI (SK-MEL-5 melanoma) [µM] | TGI (SR leukemia) [µM] | TGI (SNB-75 CNS) | TGI (HCT-116 colon) [µM] | TGI (HL-60(TB) leukemia) [µM] | TGI (SF-295 CNS) [µM] | TGI (SK-OV-3 ovarian) [µM] | TGI (RPMI-8226 leukemia) [µM] | GI50 (UACC-62 melanoma) | GI50 (CCRF-CEM leukemia) | GI50 (SK-MEL-5 melanoma) | GI50 (SR leukemia) | GI50 (SNB-75 CNS) | GI50 (HCT-116 colon) | GI50 (HL-60(TB) leukemia) | GI50 (SF-295 CNS) [µM] | GI50 (SK-OV-3 ovarian) | GI50 (RPMI-8226 leukemia)
Clc1ccc2nc(CCSCCc3nc4ccc(Cl)cc4[nH]3)[nH]c2c1 | 19.2 | 41.6 | 18.4 | 1.14 | 34.5 µM | 19.3 | 8.09 | 20.2 | 34.2 | 13.5 |  |  |  |  |  |  |  |  |  | 
Cc1ccc2sc3c(NCCCNCCO)nc4ccccc4c3c(=O)c2c1 | 3.14 | 2.97 | 3.25 | 4.07 | 2.5 µM | 2.73 | 3.58 | 3.24 | 3.02 | 3.38 | 1.69 µM | 1.35 µM | 1.78 µM | 1.55 µM | 1.2 µM | 1.41 µM | 1.86 µM | 1.77 | 1.45 µM | 1.57 µM
C=C[C@]1(C)C=C2C(=O)[C@@]3(O)OC(=O)[C@@]4(CCCC(C)(C)[C@H]34)[C@@]2(O)CC1 | 2.92 | 10.7 | 2.97 | 8.5 | 2.45 µM | 2.86 | 4.43 | 17.8 | 17 | 8.17 | 1.37 µM | 0.383 µM | 1.58 µM | 1.03 µM | 1.09 µM | 1.3 µM | 1.22 µM | 4.43 | 4.65 µM | 1.13 µM
CCOC(=O)c1c(Cl)c2c(n1Cc1cc(OC)cc(OC)c1)-c1oncc1CCC2 | > 100 | > 100 | > 100 | > 100 | 4.41 µM | > 100 | 1.03 | 1.8 | 49.6 | > 100 | 0.193 µM | 0.295 µM | 0.451 µM | 0.121 µM | 0.229 µM | 0.432 µM | 0.293 µM | 0.246 | 0.4 µM | 0.383 µM
Nc1nccc(Nc2ccc(S(N)(=O)=O)cc2)n1 | > 100 | > 100 | > 100 | > 100 | > 100 µM | > 100 | > 100 | > 100 | > 100 | > 100 |  |  |  |  |  |  |  |  |  | 
Cc1ccc(C(=O)NC2CCCCC2)cc1-c1ccc(C(=O)NCC2CC2)cc1 | > 25 | > 25 | > 25 | > 25 | > 25 µM | > 25 | > 25 | > 25 | > 25 | > 25 | 17 µM | > 25 µM | 19.9 µM | > 25 µM | > 25 µM | 20.9 µM | > 25 µM | 10.8 | > 25 µM | > 25 µM
O=C(O)CCC1CCC(c2cc(F)ccc2F)(S(=O)(=O)c2ccc(Cl)cc2)CC1 (centres undefined) | > 100 | > 100 | > 100 | > 100 | 55.8 µM and > 100 µM | > 100 | > 100 | > 100 | > 100 | > 100 | 28.2 µM and 97.1 µM | 29 µM and > 100 µM | 27.6 µM and > 100 µM | 25.5 µM and > 47.3 µM | 15.9 µM and > 72.2 µM | 23.5 µM and > 100 µM | 31.3 µM and > 81 µM | > 56.9 | 32.1 µM and > 100 µM | 71.4 µM and > 100 µM
COC(=O)N/N=C(\C)C(CN1CCOCC1)C(c1ccccc1)c1cc2ccccc2oc1=O (centres undefined) | > 100 | > 100 | > 100 | 56.5 | > 100 µM | > 100 | 85.3 | > 100 | > 100 | 53.4 |  |  |  |  |  |  |  |  |  | 
CCCCCCCCCC(=O)OCC1OC(n2cc(F)c(=O)[nH]c2=O)C(N)C(OC(=O)CCCCCCCCC)C1O (centres undefined) | 32.7 | 50.4 | 37.4 | 45.3 | 34.4 µM | 32.1 | 55.1 | 31.9 | > 100 | 48.4 |  |  |  |  |  |  |  |  |  | 
CC1(C)C2CCC13C(=O)C1OC3(C2)C2C(=O)c3c(O)ccc(O)c3C(=O)C12 (centres undefined) | > 100 | > 46.9 | 41.5 | 17.1 | > 69.3 µM | > 100 | > 50.2 | > 100 | > 100 | 6.1 | 97.1 µM | 4.45 µM | 13.4 µM | 5.17 µM | > 44.4 µM | 34.9 µM | 10.6 µM | 25.2 | 42.2 µM | 1.27 µM
NC(=O)Oc1cc(OC(N)=O)cc(N(CCCl)CCCl)c1 | 18.4 | > 100 | 52.5 | > 100 | 25.3 µM | > 100 | > 100 | > 100 | > 100 | 53.2 | 4.1 µM | 0.902 µM | 6.93 µM | 1.04 µM | 2.71 µM | 7.77 µM | 1.58 µM | 2.89 | 13.1 µM | 3.67 µM
CN1CCN(Cc2ccc(NC(=O)c3cncc(C#Cc4c(N)ncc5cc(F)ccc45)c3)cc2C(F)(F)F)CC1 | 5.18 | 2.65 | 1.52 | 50 | 7.84 µM | 1.26 | 1.49 | 14 | 13 | 2.83 | 1.88 µM | 1.04 µM | 0.794 µM | 1.47 µM | 2.02 µM | 0.595 µM | 0.289 µM | 6.47 | 6.3 µM | 1.09 µM
O=C1/C(=C/c2ccc(Cl)cc2)CN(C(=O)C(Cl)Cl)C/C1=C\c1ccc(Cl)cc1 | 0.426 | > 59.3 | 0.58 | > 40.1 | 0.509 µM | 0.13 |  | 0.683 | 1.74 | 0.169 | 0.19 µM | 0.0742 µM | 0.231 µM | 0.0395 µM | 0.161 µM | 0.0336 µM | 0.291 µM | 0.214 | 0.531 µM | 0.0302 µM
